System: patients with transfusional iron overload
Test: Example 11: efficacy study, R2 liver iron concentration per FerriScan MRI (text: mg/g liver dw)
Format: in vivo, human
Method: The goal of this experiment was to: 1. evaluate the safety and tolerability based on clinical assessments of two doses (16 and 32 mg/kg/d) of Compound 1 when administered daily for 24 weeks to patients with transfusional iron overload; 2. identify a differential response between dose groups in liver iron concentration determined by magnetic resonance imaging (MRI) after 24 weeks of dosing; and 3. assess the safety and efficacy activity of Compound 1 when administered daily for up to 96 weeks.
This experiment is an open-label, randomized study of two dose levels (16 and 32 mg/kg/d) of Compound 1 administered once daily for 24 weeks to eligible patients with transfusional iron overload requiring chelation therapy, with a dosing extension of 72 additional weeks.
Patients were assigned to one of two strate: “high” or “low” transfusion burden based on the average iron intake of the six transfusion sessions. Patients within each transfusion burden groups were randomized to one of two Compound 1 treatment arms: 16 mg/kg/d (16 mpk) or 32 mg/kg/d (32 mpk). The stratification followed by randomization to treatment arms helps to ensure an equal distribution of patients with “high” and “low” transfusion burdens to the high or low dose of Compound 1. Each treatment arm received one dose of Compound 1 daily for 24 weeks.
At the conclusion of the 24 week dosing period, patients who qualify and consent to continue treatment continued for an additional 72 weeks of Compound 1 dosing.
The inclusion of 25 patients in each treatment group provided a statistical power of 0.80 to detect, within 6 months, an LIC difference (normalized for initial LIC) of 3 mg/g dry weight between the two dose groups as determined by MRI. Baseline characteristics between dose groups were compared using Fisher extract test or Wilcoxon rank sum test as appropriate. The change in baseline to week 12, 24, and 72 values for all pharmacodynamics parameters were analyzed by an ANCOVA model with main effect for treatment group with baselines value for the corresponding parameters and transfusion burdon (iron input) during the study and baseline liver iron concentration as covariates comparing the two active treatment groups. T2* values were natural log transformed and summarized as the geometric mean (the antilog of the mean of the log data) plus or minus the co-efficient of variation (CV) defined as square root of eMSE where MSE is defined as the mean square error and subject to ANCOVA setting the p value as the threshold for statistical significance at 0.05 (confidence level of 95%).
Conducted was a multicenter, randomized, open-label study of adult subjects with documented transfusional iron overload in need of chelation therapy. Transfusional iron overload was defined as LIC by R2 (FerriScan®) magnetic resonance imaging (MRI)≧3.5 mg/g liver dw or serum ferritin>500 ng/mL. Subjects received investigational product for 24 weeks with an extension of 72 weeks for the evaluation of long-term safety and efficacy. The 24-week and 48-week pharmacodynamics results are described in this section. A total of 51 subjects enrolled and 49 completed the initial 24-week treatment period.

[1] = randomized to 16 mg/kg/d, dose adjustments after week 24
[2] = randomized to 32 mg/kg/d, dose adjustments after week 24

`COCCOCCOCCOc1cccc(C2=N[C@@](C)(C(=O)O)CS2)c1O` [Compound 1, (S)-4,5-Dihydro-2-[2-hydroxy-3-(3,6,9-trioxadecyloxy)phenyl]-4-methyl-4-thiazolecarboxylate magnesium hydroxide] was tested, and the “R2 LIC Change from Baseline to Week 12, Mean (SD)” value (16 mg/kg/d) was 2.68 (4.050), the “R2 LIC Change from Baseline to Week 12, Median” value (16 mg/kg/d) was 0.90 and the “R2 LIC Change from Baseline to Week 24, Mean (SD)” value (16 mg/kg/d) was 3.08 (5.552). The “R2 LIC Change from Baseline to Week 24, Median” value (16 mg/kg/d) was 1.10, the “R2 LIC Week 12, Mean (SD)” value (16 mg/kg/d) was 15.90 (9.446) and the “R2 LIC Week 12, Median” value (16 mg/kg/d) was 11.70. For the same compound, the “R2 LIC Week 24, Mean (SD)” value (16 mg/kg/d) was 16.31 (10.570), the “R2 LIC Week 24, Median” value (16 mg/kg/d) was 11.50 and the “R2 LIC Change from Baseline to Week 12, Mean (SD)” value (32 mg/kg/d) was −0.22 (2.827). For the same compound, the “R2 LIC Change from Baseline to Week 12, Median” value (32 mg/kg/d) was 0.10, the “R2 LIC Change from Baseline to Week 24, Mean (SD)” value (32 mg/kg/d) was −0.27 (4.950) and the “R2 LIC Change from Baseline to Week 24, Median” value (32 mg/kg/d) was 0.20. The “R2 LIC Week 12, Mean (SD)” value (32 mg/kg/d) was 13.59 (8.684), the “R2 LIC Week 12, Median” value (32 mg/kg/d) was 10.70 and the “R2 LIC Week 24, Mean (SD)” value (32 mg/kg/d) was 13.25 (8.510). For the same compound, the “R2 LIC Week 24, Median” value (32 mg/kg/d) was 9.30, the “LIC from baseline to Weeks 12 and 24” value (16 mpk) was “statistically significant increase” and the “LIC from baseline at the first 24 weeks” value (32 mpk) was “remained relatively unchanged”. For the same compound, the “R2 LIC Change from Baseline to Week 12, Mean (SD)” value (Total (both dose groups)) was 1.20 (3.740), the “R2 LIC Change from Baseline to Week 12, Median” value (Total (both dose groups)) was 0.70 and the “R2 LIC Change from Baseline to Week 24, Mean (SD)” value (Total (both dose groups)) was 1.37 (5.467). For the same compound, the “R2 LIC Change from Baseline to Week 24, Median” value (Total (both dose groups)) was 0.50, the “R2 LIC Change from Baseline to Week 48, Mean (SD)” value (Total (both dose groups)) was −0.63 (3.632) and the “R2 LIC Change from Baseline to Week 48, Median” value (Total (both dose groups)) was −0.20. For the same compound, the “R2 LIC Change from Baseline to Week 72, Mean (SD)” value (Total (both dose groups)) was −0.69 (4.975), the “R2 LIC Change from Baseline to Week 72, Median” value (Total (both dose groups)) was −0.80 and the “R2 LIC Week 12, Mean (SD)” value (Total (both dose groups)) was 14.72 (9.046). For the same compound, the “R2 LIC Week 12, Median” value (Total (both dose groups)) was 11.10, the “R2 LIC Week 24, Mean (SD)” value (Total (both dose groups)) was 14.75 (9.599) and the “R2 LIC Week 24, Median” value (Total (both dose groups)) was 11.00. For the same compound, the “R2 LIC Week 48, Mean (SD)” value (Total (both dose groups)) was 11.74 (7.813), the “R2 LIC Week 48, Median” value (Total (both dose groups)) was 8.80 and the “R2 LIC Week 72, Mean (SD)” value (Total (both dose groups)) was 11.31 (7.904). For the same compound, the “R2 LIC Week 72, Median” value (Total (both dose groups)) was 8.70, the “mean change from baseline LIC” value (Week 48, 19 subjects randomized to 16 mg/kg/day) was 0.1 mg/g and the “mean change from baseline LIC” value (Week 48, 20 subjects originally randomized to 32 mg/kg/day) was -1.3 mg/g. The “difference in the mean change from baseline between treatment groups” value (at 24 weeks, p<0.03) was 3.4 mg/g, the “dose-response in iron chelating capacity” value (between 16 and 32 mpk, first 24-weeks) was “clear dose-response” and the “LIC from Week 24” value (doses of 32 mpk and greater) was “reduction in LIC”. The “subjects with lower LIC at 24 weeks compared to Baseline” value (high dose group (32 mg/kg/day)) was 11 of 25, the “mean change in LIC” value (high dose group (32 mg/kg/day), 24 weeks) was −0.3 mg/g liver (dw) and the “subjects with lower LIC at 24 weeks compared with Baseline” value (low dose group (16 mg/kg/day)) was 7 of 24. For the same compound, the “mean change in LIC (net gain)” value (low dose group (16 mg/kg/day), 24 weeks) was 3.1 mg/g liver (dw), the “R2 LIC Change from Baseline to Week 48, Mean (SD)” value [1] was 0.09 (4.015) and the “R2 LIC Change from Baseline to Week 48, Median” value [1] was 0.00. The “R2 LIC Change from Baseline to Week 72, Mean (SD)” value [1] was 0.52 (3.654), the “R2 LIC Change from Baseline to Week 72, Median” value [1] was 0.50 and the “R2 LIC Week 48, Mean (SD)” value [1] was 11.68 (6.369). For the same compound, the “R2 LIC Week 48, Median” value [1] was 9.30, the “R2 LIC Week 72, Mean (SD)” value [1] was 10.74 (6.373) and the “R2 LIC Week 72, Median” value [1] was 9.40. For the same compound, the “R2 LIC Change from Baseline to Week 48, Mean (SD)” value [2] was −1.32 (3.177), the “R2 LIC Change from Baseline to Week 48, Median” value [2] was −0.90 and the “R2 LIC Change from Baseline to Week 72, Mean (SD)” value [2] was −1.83 (5.853). The “R2 LIC Change from Baseline to Week 72, Median” value [2] was −1.80, the “R2 LIC Week 48, Mean (SD)” value [2] was 11.81 (9.145) and the “R2 LIC Week 48, Median” value [2] was 7.70. The “R2 LIC Week 72, Mean (SD)” value [2] was 11.84 (9.307) and the “R2 LIC Week 72, Median” value [2] was 8.70.

Reference: US8993606B2, “Oral formulations for treating metal overload” (FerroKin BioSciences, Inc., priority 2011, dated 2015)
